# Test results taken from patent US20140243326A1, “Synergistic Insecticidal Mixtures” (priority 2003, published 2014).
# Where “and” joins values, the source holds several entries; their conditions need not be identical. Equal values may be shown once.
# What was measured:
# [1] = test system: Phaedon cochleariae larvae; test: Phaedon cochleariae larvae test (cabbage leaf dip); type: in vivo, mustard beetle (Phaedon cochleariae); settings: 4 ppm, single active ingredient
# Excerpt: (§1) The expected effect for a given combination of two active ingredients can be calculated (cf. Colby, S. R., “Calculating Synergistic and Antagonistic Responses of Herbicide Combinations”, Weeds, 15, pp. 20-22, 1967).
# (§2) If • X=the kill rate, expressed in % of the untreated control, while using active ingredient A in an application amount of m ppm, • Y=the kill rate, expressed in % of the untreated control, while using active ingredient B in an application amount of n ppm, • E=the kill rate, expressed in % of die untreated control, while using active ingredient A and B in application amounts of m and n ppm, then
# (§3) If the actual kill rate is higher than calculated rate, the combination's kill rate is superadditive, i.e., it has a synergistic effect. In this case, the actually observed kill rate must be higher than the value calculated using the above formula for the expected kill rate (E).
# (§4) Solvent: 7 parts per weight dimethyl formamide Emulsifiers: 2 parts by weight alkylaryl polyglycol ether
# To manufacture one of the appropriate active ingredient preparations, mix 1 part by weight of the active ingredient with the indicated amount of solvent and emulsifier and dilute the concentrate with emulsifier-containing water to the desired concentration.
# Cabbage leaves (Brassica oleracea) are treated by being dipped into the active ingredient preparation at the desired concentration and infested with larvae of the mustard beetle (Phaedon cochleariae) while the leaves are still damp.
# After the desired time, determine the % that have been killed off. For this purpose 100% means that all the beetle larvae on the leaves were killed; 0% means that no beetle larvae were killed. Calculate the determined kill values using Colby's formula.
# Myzus persicae = Myzus persicae test (cabbage leaf dip); type: in vivo, green peach aphid (Myzus persicae); settings: single active ingredient
# Excerpt: as §1, §2, §3, §4
# (§5) To prepare one of the appropriate active ingredient preparations, mix 1 part by weight of the active ingredient with the indicated amount of solvent and emulsifier and dilute the concentrate with emulsifier-containing water to the desired concentration.
# Cabbage leaves (Brassica oleracea) that have been highly infested with the green peach aphid (Myzus persicae) are treated by being dipped into the active ingredient preparation at the desired concentration.
# After the desired time, determine the % that have been killed off. For these purposes, 100% means that all the aphids on the leaves were killed; 0% means that no aphids were killed. Calculate the determined kill values using Colby's formula.
# [2] = test system: Plutella xylostella, resistant strain; test: Plutella xylostella test, resistant strain (cabbage leaf dip); type: in vivo, diamondback moth (Plutella xylostella; settings: 100 ppm, single active ingredient
# Excerpt: as §1, §2, §3
# Solvent: 7 parts per weight dimethyl formamide Emulsifier: 2 parts by weight alkylaryl polyglycol ether
# as §5
# Cabbage leaves (Brassica oleracea) are treated by being dipped into the active ingredient preparation at the desired concentration and infested with diamondback moth grubs (Plutella xylostella, resistant strain) while the leaves are still damp.
# After the desired time, determine the % that have been killed off. For these purposes 100% means that all the grubs on the leaves were killed; 0% means that no grubs were killed. Calculate the determined kill rate values using Colby's formula.
Structure (SMILES),Kill rate in % after 6d [1] [%],Dead in % after 6d (Myzus persicae; 0.8 ppm) [%],Kill rate in % after 6d [2],Kill rate in % after 6d (Myzus persicae; 0.8 ppm) [%],Dead in % after 6d (Myzus persicae; 20 ppm) [%],Kill rate in % after 6d (Myzus persicae; 20 ppm) [%]
CN/C(=N\[N+](=O)[O-])NCc1cnc(Cl)s1 [clothianidin],75,,,,,
O=[N+]([O-])NC1=NCCN1Cc1ccc(Cl)nc1 [imidacloprid],45,,,,,
N#C/N=C1\SCCN1Cc1ccc(Cl)nc1 [thiacloprid],0,30,45%,,,
CN1COCN(Cc2cnc(Cl)s2)/C1=N/[N+](=O)[O-] [thiamethoxam],25,,75%,85,,
CS/C(C)=N\OC(=O)N(C)SN(C)C(=O)O/N=C(\C)SC [thiodicarb],,,15% and 5%,,0,0
